Assay results: DBAASP
≈ marks a conversion by molar mass, not a printed value. Each block holds one compound with its values, some of them ahead of it.

Experiments:
Test in all cases: ≥ marks a high value that may be exact or a test limit, other limits are often not marked, values filed in µg/mL are converted to µM
[1] = system: Latilactobacillus sakei NCDO 2714
[2] = system: Lactiplantibacillus plantarum 965
[3] = system: Candida albicans CCARM 14020
Candida albicans SC5314 = system: Candida albicans SC5314
[4] = system: Candida albicans CCARM 14021
[5] = system: Candida albicans CCARM 14022
[6] = system: Escherichia coli ATCC 25922
Botrytis cinerea 101 = system: Botrytis cinerea 101
[7] = system: Corynebacterium glutamicum ATCC 13032
[8] = system: Staphylococcus aureus ATCC 9144
Listeria grayi DSM 20601 = system: Listeria grayi DSM 20601
Staphylococcus aureus 1 = system: Staphylococcus aureus 1
[9] = system: Candida albicans F7-39/IDE99
Bacillus subtilis 168 = system: Bacillus subtilis 168
Escherichia coli B = system: Escherichia coli B
[10] = system: Staphylococcus aureus ATCC 43300
[11] = system: Pseudomonas aeruginosa ATCC 27853
Staphylococcus aureus = system: Staphylococcus aureus
Pseudomonas aeruginosa = system: Pseudomonas aeruginosa
[12] = system: Staphylococcus epidermidis
[13] = system: Micrococcus luteus CCM 144
[14] = system: Pseudomonas aeruginosa PAO1
[15] = system: Staphylococcus aureus ATCC 33592
[16] = system: Acinetobacter baumannii ATCC BAA-1794
[17] = system: Escherichia coli ATCC 51659
[18] = system: Staphylococcus aureus 68 HER 1049
[19] = system: Escherichia coli K12 MG1655
[20] = system: Trichomonas vaginalis ATCC 50143
Vibrio alginolyticus = system: Vibrio alginolyticus
[21] = system: Trichomonas vaginalis ATCC 30001
[22] = system: Listeria monocytogenes BCRC 14845
Trichomonas vaginalis T1 = system: Trichomonas vaginalis T1
[23] = system: Vibrio vulnificus BCRC 12905
[24] = system: Mycobacterium tuberculosis
Candida albicans = system: Candida albicans
Candida glabrata = system: Candida glabrata
[25] = system: Mycobacterium tuberculosis H37Rv
[26] = system: Pseudomonas aeruginosa ATCC 9027
Streptococcus agalactiae = system: Streptococcus agalactiae
[27] = system: Staphylococcus aureus ATCC 25923

SMILES: CSCC[C@H](NC(=O)[C@H](CCC(N)=O)NC(=O)[C@H](CC(C)C)NC(=O)[C@H](CO)NC(=O)[C@@H](N)Cc1ccc(O)cc1)C(=O)O [YSLQM]
MIC [1]: 1 µM (≈ 0.641 µg/mL)
MIC [2]: 10 µM (≈ 6.41 µg/mL)

SMILES: CC[C@H](C)[C@H](NC(=O)[C@H](CS)NC(=O)[C@@H](NC(=O)[C@H](CCCN=C(N)N)NC(=O)[C@H](CCCCN)NC(=O)[C@H](CC(C)C)NC(=O)[C@H](Cc1ccccc1)NC(=O)[C@H](CC(N)=O)NC(=O)CNC(=O)[C@@H](N)CS)[C@@H](C)O)C(=O)N[C@@H](CS)C(=O)N[C@H](C(=O)N[C@@H](CCCCN)C(=O)N[C@@H](CCCCN)C(=O)O)C(C)C [CGNFLKRTCICVKK]
MIC (Listeria grayi DSM 20601): ≥ 60 µM

SMILES: CC[C@H](C)[C@H](NC(=O)CN)C(=O)N[C@@H](CCSC)C(=O)N[C@H](C(=O)N[C@@H](CO)C(=O)N[C@@H](CC(C)C)C(=O)N[C@@H](CCSC)C(=O)N[C@@H](CCCCN)C(=O)N[C@@H](CCCCN)C(=O)N[C@@H](CC(C)C)C(=O)N[C@@H](C)C(=O)N[C@@H](C)C(=O)N[C@@H](Cc1cnc[nH]1)C(=O)N[C@H](C(=O)N[C@@H](C)C(=O)N[C@@H](CCCCN)C(N)=O)[C@@H](C)CC)[C@@H](C)CC [GIMISLMKKLAAHIAK]
MIC (Staphylococcus aureus 1): ≥ 35 µM
MIC [9]: 12 µM (≈ 20.7 µg/mL)
MIC (Bacillus subtilis 168): 7 µM (≈ 12.1 µg/mL)
MIC (Escherichia coli B): 12 µM (≈ 20.7 µg/mL)
MIC [10]: 43 µM (≈ 74.1 µg/mL)
MIC [11]: 47 µM (≈ 81 µg/mL)
MIC (Staphylococcus aureus): 65 µM (≈ 112 µg/mL)
MIC (Pseudomonas aeruginosa): > 100 µM
MIC [12]: 8.8 µM (≈ 15.2 µg/mL)
MIC [13]: 3 µM (≈ 5.17 µg/mL)

SMILES: CC[C@H](C)[C@H](NC(=O)CNC(=O)[C@H](CCCCN)NC(=O)[C@H](Cc1ccccc1)NC(=O)[C@H](CC(C)C)NC(=O)[C@H](CCCCN)NC(=O)[C@H](Cc1c[nH]c2ccccc12)NC(=O)[C@@H](N)CCCCN)C(=O)N[C@@H](CCCN=C(N)N)C(=O)N[C@@H](C)C(=O)N[C@H](C(=O)N[C@@H](CC(C)C)C(=O)N[C@@H](CCCCN)C(=O)N[C@H](C(=O)N[C@@H](CC(C)C)C(=O)O)C(C)C)C(C)C [KWKLFKGIRAVLKVL]
MIC [18]: 4.45 µM (≈ 8 µg/mL)
MIC [19]: 2.22 µM (≈ 4 µg/mL)

SMILES: CSCC[C@H](NC(=O)[C@H](CCCN=C(N)N)NC(=O)CNC(=O)[C@H](CCCCN)NC(=O)[C@H](Cc1ccc(O)cc1)NC(=O)[C@H](Cc1ccc(O)cc1)NC(=O)[C@@H](NC(=O)[C@H](CCC(N)=O)NC(=O)[C@H](Cc1ccccc1)NC(=O)[C@H](CCCN=C(N)N)NC(=O)[C@H](CCCCN)NC(=O)[C@H](CC(C)C)NC(=O)[C@H](Cc1ccc(O)cc1)NC(=O)[C@@H]1CCCN1C(=O)[C@H](CCCCN)NC(=O)[C@@H](NC(=O)[C@@H](NC(=O)[C@H](Cc1ccccc1)NC(=O)[C@H](CCCCN)NC(=O)[C@H](CS)NC(=O)[C@H](CCC(=O)O)NC(C)=O)[C@@H](C)O)C(C)C)C(C)C)C(=O)N[C@@H](Cc1c[nH]c2ccccc12)C(=O)N[C@@H](CS)C(=O)N1CCC[C@H]1C(N)=O [ECKFTVKPYLKRFQVYYKGRMWCP]
MIC [20]: 8.14 µM (≈ 25.3 µg/mL)
MIC (Vibrio alginolyticus): ≥ 32.6 µM
MIC [21]: ≥ 32.6 µM
MIC [22]: 8.14 µM (≈ 25.3 µg/mL)
MIC (Trichomonas vaginalis T1): ≥ 65.1 µM
MIC [23]: ≥ 32.6 µM

Second part, the compound after the results:

MIC [3]: 2.86 µM (≈ 5.65 µg/mL)
MIC (Candida albicans SC5314): 2.86 µM (≈ 5.65 µg/mL)
MIC [4]: 5.72 µM (≈ 11.3 µg/mL)
MIC [5]: 16.2 µM (≈ 32 µg/mL)
SMILES: CC(C)C[C@H](NC(=O)[C@@H](N)Cc1c[nH]c2ccccc12)C(=O)N[C@@H](CC(N)=O)C(=O)N[C@@H](C)C(=O)N[C@@H](CCCCN)C(=O)N[C@@H](CCCN=C(N)N)C(=O)N[C@@H](Cc1cnc[nH]1)C(=O)N[C@@H](Cc1cnc[nH]1)C(=O)NCC(=O)N[C@@H](Cc1ccc(O)cc1)C(=O)N[C@@H](CCCCN)C(=O)N[C@@H](CCCN=C(N)N)C(=O)N[C@@H](CCCCN)C(=O)N[C@@H](Cc1ccccc1)C(=O)N[C@@H](Cc1cnc[nH]1)C(N)=O [WLNAKRHHGYKRKFH]

MIC [6]: > 100 µM
MIC (Botrytis cinerea 101): ≥ 100 µM
MIC [7]: ≥ 100 µM
MIC [8]: ≥ 100 µM
SMILES: CC[C@H](C)[C@H](NC(=O)[C@H](CCCCN)NC(=O)[C@@H](NC(=O)[C@H](CCCN=C(N)N)NC(=O)[C@H](C)NC(=O)[C@H](CCC(=O)O)NC(=O)[C@H](CCC(=O)O)NC(=O)[C@@H]1CCCN1C(=O)[C@@H](N)CO)C(C)C)C(=O)N[C@@H](CC(C)C)C(=O)N[C@H](C(=O)N[C@@H](C)C(=O)N[C@H](C(=O)N1CCC[C@H]1C(=O)N[C@@H](CCC(=O)O)C(=O)N[C@@H](CCSC)C(=O)N[C@@H](CCCN=C(N)N)C(=O)N[C@@H](CCC(=O)O)C(=O)N[C@@H](CCC(=O)O)C(=O)N[C@@H](CC(=O)O)C(=O)N[C@@H](CC(C)C)C(=O)N[C@@H](CO)C(=O)N[C@@H](CCC(=O)O)C(=O)N[C@@H](CCC(=O)O)C(=O)O)[C@@H](C)CC)[C@@H](C)O [SPEEARVKILTAIPEMREEDLSEE]

MIC [14]: > 80.6 µM
MIC [15]: ≥ 80.6 µM
MIC [16]: ≥ 80.6 µM
MIC [17]: ≥ 80.6 µM
SMILES: CC(C)C[C@H](NC(=O)[C@H](CCCCN)NC(=O)[C@H](CCC(=O)O)NC(=O)[C@H](CCCCN)NC(=O)[C@@H](NC(=O)[C@H](CCCCN)NC(=O)[C@H](CCCCN)NC(=O)[C@H](Cc1ccccc1)NC(=O)[C@H](Cc1cnc[nH]1)NC(=O)[C@H](CCC(=O)O)NC(=O)[C@H](CO)NC(=O)[C@H](Cc1ccccc1)NC(=O)[C@H](Cc1c[nH]c2ccccc12)NC(=O)[C@H](CC(N)=O)NC(=O)[C@H](CCCN=C(N)N)NC(=O)[C@@H](NC(=O)[C@H](CCCCN)NC(=O)[C@@H](NC(=O)[C@H](CO)NC(=O)[C@@H](N)Cc1ccccc1)[C@@H](C)O)[C@@H](C)O)C(C)C)C(=O)N[C@@H](CCCCN)C(=O)N[C@@H](CC(=O)O)C(=O)N[C@H](C(=O)N[C@@H](Cc1ccccc1)C(=O)N[C@@H](C)C(=O)O)[C@@H](C)O [FSTKTRNWFSEHFKKVKEKLKDTFA]

MIC [24]: 8.6 µM (≈ 16 µg/mL)
MIC [6]: 24 µM (≈ 44.6 µg/mL)
MIC (Candida albicans): 6.25 µM (≈ 11.6 µg/mL)
MIC (Candida glabrata): ≥ 50 µM
MIC [25]: 5.4 µM (≈ 10 µg/mL)
MIC [26]: 5 µM (≈ 9.3 µg/mL)
MIC (Streptococcus agalactiae): 5 µM (≈ 9.3 µg/mL)
MIC [27]: 5 µM (≈ 9.3 µg/mL)
SMILES: CC[C@H](C)[C@H](NC(=O)[C@H](CCCCN)NC(=O)[C@H](CCCCN)NC(=O)[C@@H](NC(=O)[C@H](C)NC(=O)[C@H](CO)NC(=O)[C@@H](NC(=O)[C@H](C)NC(=O)[C@H](CO)NC(=O)[C@@H]1CCCN1C(=O)[C@@H](NC(=O)[C@H](CC(C)C)NC(=O)[C@H](CO)NC(=O)[C@H](CC(C)C)NC(=O)[C@H](CC(C)C)NC(=O)[C@H](Cc1ccccc1)NC(=O)[C@@H](N)Cc1ccccc1)[C@@H](C)CC)[C@@H](C)CC)[C@@H](C)CC)C(N)=O [FFLLSLIPSAISAIKKI]
